Read-outs that look alike come from different tables or passages of the source.
How the values were obtained:
[1] = system: Echinochloa oryzoides (Ard.) Fritsch.; test: Preemergence weed control under flooded paddy conditions, ECHORC (Watergrass (Calif.)); assay type: in vivo; settings: preemergence, flooded paddy; also: meaning of each grade not given here
Cyperus iria [2] = test: Preemergence weed control under flooded paddy conditions, CYPIR (Rice Flatsedge); assay type: in vivo; settings: preemergence, flooded paddy; also: meaning of each grade not given here
[3] = system: Cyperus serotinus, Rottb.; test: Preemergence weed control under flooded paddy conditions, CYPSE (Flatsedge); assay type: in vivo; settings: preemergence; also: meaning of each grade not given here
[4] = system: Monochoria vaginalis, Presl.; test: Preemergence weed control under flooded paddy conditions, MOOVA (Monochoria); assay type: in vivo; settings: preemergence, flooded paddy; also: meaning of each grade not given here
Sagittaria pygmaea, L. [5] = test: Preemergence weed control under flooded paddy conditions, SAGPY (Arrowhead (Pygmaea)); assay type: in vivo; settings: preemergence, flooded paddy; also: meaning of each grade not given here
[6] = system: Oryza sativa, (L.) Tebonnet; settings: in vivo
[7] = system: Echinochloa oryzoides (Ard.) Fritsch.; test: Postemergence weed control under flooded paddy conditions, ECHORC (Watergrass (Calif.)); assay type: in vivo; settings: rated three to four weeks after treatment
Cyperus iria [8] = test: Postemergence weed control under flooded paddy conditions, CYPIR (Rice Flatsedge); assay type: in vivo; settings: rated three to four weeks after treatment
[9] = system: Cyperus serotinus, Rottb.; test: Postemergence weed control under flooded paddy conditions, CYPSE (Flatsedge); assay type: in vivo; settings: rated three to four weeks after treatment
[10] = system: Monochoria vaginalis, Presl.; test: Postemergence weed control under flooded paddy conditions, MOOVA (Monochoria); assay type: in vivo; settings: rated three to four weeks after treatment
Sagittaria pygmaea, L. [11] = test: Postemergence weed control under flooded paddy conditions, SAGPY (Arrowhead (Pygmaea)); assay type: in vivo; settings: rated three to four weeks after treatment
[12] = system: Oryza sativa, (L.) Tebonnet; test: Rice tolerance to post-transplant applications under flooded paddy conditions (Example 187), ORYSAT (Rice, Tebonnet); settings: rated 3-4 weeks after treatment; as to herbicidal effect rating ORYSAT: meaning of each grade not given here
[13] = system: Oryza sativa, (L.) Tebonnet; test: Rice tolerance to post-transplant applications under flooded paddy conditions (Example 188), ORYSAT (Rice, Tebonnet); settings: rated three to four weeks after treatment
[14] = 0.0313 kg/ha, rated three to four weeks after treatment
[15] = 0.0625 kg/ha, rated three to four weeks after treatment
[16] = 0.1250 kg/ha, rated three to four weeks after treatment
[17] = 0.2500 kg/ha, rated three to four weeks after treatment
[18] = Rate 0.0320 kg/ha, rated 3-4 weeks after treatment
[19] = Rate 0.0620 kg/ha, rated 3-4 weeks after treatment
[20] = Rate 0.1250 kg/ha, rated 3-4 weeks after treatment
[21] = Rate 0.2500 kg/ha, rated 3-4 weeks after treatment

1-Methyl-3-(2-methyl-3-oxo-1,2-benzisoxazolin-5-yl)-6-(trifluoromethyl)-2,4(1H,3H)-pyrimidinedione [Example 44]
herbicidal effect rating, ECHORC [1, 14]: 0.0
herbicidal effect rating, ECHORC [1, 15]: 0.0
herbicidal effect rating, ECHORC [1, 16]: 0.0
herbicidal effect rating, ECHORC [1, 17]: 0.0
herbicidal effect rating, CYPIR (Cyperus iria [2]; [14]): 0.0
herbicidal effect rating, CYPIR (Cyperus iria [2]; [15]): 0.0
herbicidal effect rating, CYPIR (Cyperus iria [2]; [16]): 0.0
herbicidal effect rating, CYPIR (Cyperus iria [2]; [17]): 0.0
herbicidal effect rating, CYPSE [3, 14]: 0.0
herbicidal effect rating, CYPSE [3, 15]: 0.0
herbicidal effect rating, CYPSE [3, 16]: 0.0
herbicidal effect rating, CYPSE [3, 17]: 0.0
herbicidal effect rating, MOOVA [4, 14]: 0.0
herbicidal effect rating, MOOVA [4, 15]: 0.0
herbicidal effect rating, MOOVA [4, 16]: 0.0
herbicidal effect rating, MOOVA [4, 17]: 0.0
herbicidal effect rating, SAGPY (Sagittaria pygmaea, L. [5]; [14]): 0.0
herbicidal effect rating, SAGPY (Sagittaria pygmaea, L. [5]; [15]): 0.0
herbicidal effect rating, SAGPY (Sagittaria pygmaea, L. [5]; [16]): 0.0
herbicidal effect rating, SAGPY (Sagittaria pygmaea, L. [5]; [17]): 0.0
herbicidal effect rating, ORYSAT (rice tolerance) [6]: 0.0

C#CCOC(=O)C(C)(C)Oc1ccc(C)cc1-c1nsc2ccc(-n3c(=O)cc(C(F)(F)F)n(C)c3=O)cc12 [Example 528, Propionic acid, 2-{{2-{5-[3,6-dihydro-3-methyl-2,6-dioxo-4-(trifluoromethyl)-1(2H)-pyrimidinyl]-1,2-benzisothiazol-3-yl}-p-tolyl}oxy}-2-methyl-, 2-propynyl ester]
herbicidal effect rating, ECHORC [1, 18]: 9.0
herbicidal effect rating, ECHORC [1, 19]: 9.0
herbicidal effect rating, ECHORC [1, 20]: 9.0
herbicidal effect rating, ECHORC [1, 21]: 9.0
herbicidal effect rating, CYPIR (Cyperus iria [2]; [18]): 4.5
herbicidal effect rating, CYPIR (Cyperus iria [2]; [19]): 5.0
herbicidal effect rating, CYPIR (Cyperus iria [2]; [20]): 5.0
herbicidal effect rating, CYPIR (Cyperus iria [2]; [21]): 9.0
herbicidal effect rating, CYPSE [3, 18]: 0.0
herbicidal effect rating, CYPSE [3, 19]: 0.0
herbicidal effect rating, CYPSE [3, 20]: 0.0
herbicidal effect rating, CYPSE [3, 21]: 0.0
herbicidal effect rating, MOOVA [4, 18]: 9.0
herbicidal effect rating, MOOVA [4, 19]: 9.0
herbicidal effect rating, MOOVA [4, 20]: 9.0
herbicidal effect rating, MOOVA [4, 21]: 9.0
herbicidal effect rating, SAGPY (Sagittaria pygmaea, L. [5]; [18]): 1.0
herbicidal effect rating, SAGPY (Sagittaria pygmaea, L. [5]; [19]): 0.0
herbicidal effect rating, SAGPY (Sagittaria pygmaea, L. [5]; [20]): 1.5
herbicidal effect rating, SAGPY (Sagittaria pygmaea, L. [5]; [21]): 3.0
herbicidal effect rating, ECHORC ([7]; Rate 0.0320 kg/ha): 0.0
herbicidal effect rating, ECHORC ([7]; Rate 0.0620 kg/ha): 7.0
herbicidal effect rating, ECHORC ([7]; Rate 0.1250 kg/ha): 9.0
herbicidal effect rating, ECHORC ([7]; Rate 0.2500 kg/ha): 9.0
herbicidal effect rating, CYPIR (Cyperus iria [8]; Rate 0.0320 kg/ha): 6.0
herbicidal effect rating, CYPIR (Cyperus iria [8]; Rate 0.0620 kg/ha): 6.0
herbicidal effect rating, CYPIR (Cyperus iria [8]; Rate 0.1250 kg/ha): 6.0
herbicidal effect rating, CYPIR (Cyperus iria [8]; Rate 0.2500 kg/ha): 6.0
herbicidal effect rating, CYPSE ([9]; Rate 0.0320 kg/ha): 0.0
herbicidal effect rating, CYPSE ([9]; Rate 0.0620 kg/ha): 0.0
herbicidal effect rating, CYPSE ([9]; Rate 0.1250 kg/ha): 0.0
herbicidal effect rating, CYPSE ([9]; Rate 0.2500 kg/ha): 9.0
herbicidal effect rating, MOOVA ([10]; Rate 0.0320 kg/ha): 0.0
herbicidal effect rating, MOOVA ([10]; Rate 0.0620 kg/ha): 0.0
herbicidal effect rating, MOOVA ([10]; Rate 0.1250 kg/ha): 9.0
herbicidal effect rating, MOOVA ([10]; Rate 0.2500 kg/ha): 9.0
herbicidal effect rating, SAGPY (Sagittaria pygmaea, L. [11]; Rate 0.0320 kg/ha): 0.0
herbicidal effect rating, SAGPY (Sagittaria pygmaea, L. [11]; Rate 0.0620 kg/ha): 0.0
herbicidal effect rating, SAGPY (Sagittaria pygmaea, L. [11]; Rate 0.1250 kg/ha): 0.0
herbicidal effect rating, SAGPY (Sagittaria pygmaea, L. [11]; Rate 0.2500 kg/ha): 3.0
herbicidal effect rating ORYSAT ([12]; Rate 0.0320 kg/ha): 1.5
herbicidal effect rating ORYSAT ([12]; Rate 0.0620 kg/ha): 3.5
herbicidal effect rating ORYSAT ([12]; Rate 0.1250 kg/ha): 7.0
herbicidal effect rating ORYSAT ([12]; Rate 0.2500 kg/ha): 9.0
herbicidal effect rating, ORYSAT (rice tolerance) ([13]; Rate 0.0320 kg/ha): 0.0
herbicidal effect rating, ORYSAT (rice tolerance) ([13]; Rate 0.0620 kg/ha): 0.0
herbicidal effect rating, ORYSAT (rice tolerance) ([13]; Rate 0.1250 kg/ha): 2.0
herbicidal effect rating, ORYSAT (rice tolerance) ([13]; Rate 0.2500 kg/ha): 3.0

From patent EP0908457B1, “3-(1,2-benzisothiazol- and isoxazol-5-Y1)-2,4(1H,3H)-pyrimidinedione or thione and 3-(1,2-benzisothiazol- and isoxazol-5-y1)-4(3H)-pyrimidinone or thione herbicidal agents” (BASF AKTIENGESELLSCHAFT, priority 1997, dated 1999)
